In patent publication US11236102B2, “Oxabicycloheptane prodrugs” (Lixte Biotechnology, Inc., priority 2015, dated 2022):
Several values for one entry are separate records, joined by “and”; a condition that tells them apart may be missing. Identical values can stand only once. Like-named read-outs stand apart in the source and are kept apart here.

Assay: Pharmacokinetic study of 151 (iv, oral) in SD rats: 151 and 100 in plasma
Assay type: in vivo
Conditions: for AUC(0-t): read-out: AUC0-t of 151; for AUC(0-inf): read-out: AUC0-∞ of 151
Description: The absolute bioavailability was evaluated.
To each sample, 160 μL of acetonitrile were added.
The mass spectrometer was operated in the positive mode.
Quantification was achieved by the external standard method.
Calibration Curve for Plasma Samples
LB100 concentrations of the LB151 plasma samples were also measured and pharmacokinetic parameters were calculated.

[1] = 151 IV 1.0 mg/kg, SD rats, individual rats, 1 mg/kg
[2] = male, Sprague-Dawley, rat, in vivo, iv, 1 mg/kg, plasma, 151 IV 1.0 mg/kg, SD rats, individual rats
[3] = male, Sprague-Dawley, rat, in vivo, iv, 1 mg/kg, plasma, 151 IV 1.0 mg/kg, SD rats, mean
[4] = male, Sprague-Dawley, rat, in vivo, po, 10 mg/kg, plasma, 151 PO 10 mg/kg, SD rats, individual rats
[5] = male, Sprague-Dawley, rat, in vivo, po, 10 mg/kg, plasma, 151 PO 10 mg/kg, SD rats, mean
[6] = plasma, 151 IV 1.0 mg/kg, SD rats, individual rats, 1 mg/kg
[7] = plasma, 151 PO 10 mg/kg, SD rats, individual rats, 10 mg/kg

COC(=O)C1C2CCC(O2)C1C(=O)N1CCN(C)CC1 (stereo not shown) [Compound 151]
151 plasma concentration (151 IV 1.0 mg/kg, SD rats, 0.083 h, individual rats, 1 mg/kg): 1301 ng/mL | 151 plasma concentration (151 IV 1.0 mg/kg, SD rats, 0.250 h, individual rats, 1 mg/kg): 949 ng/mL | 151 plasma concentration (151 IV 1.0 mg/kg, SD rats, 0.50 h, individual rats, 1 mg/kg): 607 ng/mL | 151 plasma concentration (151 IV 1.0 mg/kg, SD rats, 1.0 h, individual rats, 1 mg/kg): 314 ng/mL | 151 plasma concentration (151 IV 1.0 mg/kg, SD rats, 2.0 h, individual rats, 1 mg/kg): 103 ng/mL | 151 plasma concentration (151 IV 1.0 mg/kg, SD rats, 3.0 h, individual rats, 1 mg/kg): 28.1 ng/mL | 151 plasma concentration (151 IV 1.0 mg/kg, SD rats, 5.0 h, individual rats, 1 mg/kg): 9.75 ng/mL and 3.63 ng/mL | 151 plasma concentration (151 IV 1.0 mg/kg, SD rats, 7.0 h, individual rats, 1 mg/kg): 12.2 ng/mL and 1.83 ng/mL | 151 plasma concentration (151 IV 1.0 mg/kg, SD rats, 9.0 h, individual rats, 1 mg/kg): BLQ | 151 plasma concentration (151 IV 1.0 mg/kg, SD rats, 24 h, individual rats): BLQ | CL of 151 [1]: 955 mL/h/kg | Vss of 151 [1]: 775 mL/kg | F of 151 (151 PO 10 mg/kg vs IV 1.0 mg/kg, SD rats, mean, based on AUC0-∞): 54.6% | 151 plasma concentration (151 PO 10 mg/kg, SD rats, 0.25 h, individual rats, 10 mg/kg): 2029 ng/mL and 2731 ng/mL | 151 plasma concentration (151 PO 10 mg/kg, SD rats, 0.50 h, individual rats, 10 mg/kg): 3934 ng/mL and 3343 ng/mL | 151 plasma concentration (151 PO 10 mg/kg, SD rats, 1.0 h, individual rats, 10 mg/kg): 2581 ng/mL and 2538 ng/mL | 151 plasma concentration (151 PO 10 mg/kg, SD rats, 2.0 h, individual rats, 10 mg/kg): 1237 ng/mL and 1582 ng/mL | 151 plasma concentration (151 PO 10 mg/kg, SD rats, 3.0 h, individual rats, 10 mg/kg): 660 ng/mL and 794 ng/mL | 151 plasma concentration (151 PO 10 mg/kg, SD rats, 5.0 h, individual rats, 10 mg/kg): 99.4 ng/mL and 192 ng/mL | 151 plasma concentration (151 PO 10 mg/kg, SD rats, 7.0 h, individual rats, 10 mg/kg): 42.6 ng/mL and 20.7 ng/mL and 68.0 ng/mL | 151 plasma concentration (151 PO 10 mg/kg, SD rats, 9.0 h, individual rats, 10 mg/kg): 38.2 ng/mL and 66.1 ng/mL | 151 plasma concentration (151 PO 10 mg/kg, SD rats, 24 h, individual rats): BLQ | time of peak plasma concentration (151 oral 10 mg/kg, SD rats (n=3)): 0.5 h | concentration at 0.083 h (male, Sprague-Dawley, rat, in vivo, iv, 1 mg/kg, 151 IV 1.0 mg/kg, SD rats, 0.083 h, individual rats): 1680 ng/mL | concentration at 0.083 h (male, Sprague-Dawley, rat, in vivo, iv, 1 mg/kg, 151 IV 1.0 mg/kg, SD rats, 0.083 h, mean): 1490 ng/mL | concentration at 0.25 h (male, Sprague-Dawley, rat, in vivo, iv, 1 mg/kg, 151 IV 1.0 mg/kg, SD rats, 0.250 h, individual rats): 1160 ng/mL | concentration at 0.25 h (male, Sprague-Dawley, rat, in vivo, iv, 1 mg/kg, 151 IV 1.0 mg/kg, SD rats, 0.250 h, mean): 1060 ng/mL | concentration at 0.5 h (male, Sprague-Dawley, rat, in vivo, iv, 1 mg/kg, 151 IV 1.0 mg/kg, SD rats, 0.50 h, individual rats): 760 ng/mL | concentration at 0.5 h (male, Sprague-Dawley, rat, in vivo, iv, 1 mg/kg, 151 IV 1.0 mg/kg, SD rats, 0.50 h, mean): 683 ng/mL | concentration at 1 h (male, Sprague-Dawley, rat, in vivo, iv, 1 mg/kg, 151 IV 1.0 mg/kg, SD rats, 1.0 h, individual rats): 381 ng/mL | concentration at 1 h (male, Sprague-Dawley, rat, in vivo, iv, 1 mg/kg, 151 IV 1.0 mg/kg, SD rats, 1.0 h, mean): 348 ng/mL | concentration at 2 h (male, Sprague-Dawley, rat, in vivo, iv, 1 mg/kg, 151 IV 1.0 mg/kg, SD rats, 2.0 h, individual rats): 95.8 ng/mL | concentration at 2 h (male, Sprague-Dawley, rat, in vivo, iv, 1 mg/kg, 151 IV 1.0 mg/kg, SD rats, 2.0 h, mean): 99.6 ng/mL | concentration at 3 h (male, Sprague-Dawley, rat, in vivo, iv, 1 mg/kg, 151 IV 1.0 mg/kg, SD rats, 3.0 h, individual rats): 39.6 ng/mL | concentration at 3 h (male, Sprague-Dawley, rat, in vivo, iv, 1 mg/kg, 151 IV 1.0 mg/kg, SD rats, 3.0 h, mean): 33.8 ng/mL | concentration at 5 h (male, Sprague-Dawley, rat, in vivo, iv, 1 mg/kg, 151 IV 1.0 mg/kg, SD rats, 5.0 h, mean): 6.69 ng/mL | concentration at 7 h (male, Sprague-Dawley, rat, in vivo, iv, 1 mg/kg, 151 IV 1.0 mg/kg, SD rats, 7.0 h, mean): 7.02 ng/mL | concentration at 9 h (male, Sprague-Dawley, rat, in vivo, iv, 1 mg/kg, 151 IV 1.0 mg/kg, SD rats, 9.0 h, individual rats): 2.01 ng/mL | concentration at 9 h (male, Sprague-Dawley, rat, in vivo, iv, 1 mg/kg, 151 IV 1.0 mg/kg, SD rats, 9.0 h, mean): 1 ng/mL | clearance (male, Sprague-Dawley, rat, in vivo, iv, 1 mg/kg, 151 IV 1.0 mg/kg, SD rats, individual rats, read-out: CL of 151 (converted)): 12.7 mL/min/kg | Vd (male, Sprague-Dawley, rat, in vivo, iv, 1 mg/kg, 151 IV 1.0 mg/kg, SD rats, individual rats, read-out: Vss of 151): 0.696 L/kg | clearance (male, Sprague-Dawley, rat, in vivo, iv, 1 mg/kg, 151 IV 1.0 mg/kg, SD rats, mean, read-out: CL of 151 (converted)): 14.3 mL/min/kg | Vd (male, Sprague-Dawley, rat, in vivo, iv, 1 mg/kg, 151 IV 1.0 mg/kg, SD rats, mean, read-out: Vss of 151): 0.736 L/kg | half-life (male, Sprague-Dawley, rat, in vivo, iv, 1 mg/kg, 151 iv 1.0 mg/kg (n=2), read-out: elimination half-life (converted)): 53.4 min | clearance (male, Sprague-Dawley, rat, in vivo, iv, 1 mg/kg, 151 iv 1.0 mg/kg (n=2), read-out: mean clearance from rat plasma (converted)): 14.3 mL/min/kg | Vd (male, Sprague-Dawley, rat, in vivo, iv, 1 mg/kg, 151 iv 1.0 mg/kg (n=2), read-out: volume of distribution at steady state): 0.736 L/kg | MRT [2]: 0.91 h | AUC(0-t) [2]: 1290 ng·h/mL | AUC(0-inf) [2]: 1310 ng·h/mL | half-life (male, Sprague-Dawley, rat, in vivo, iv, 1 mg/kg, plasma, 151 IV 1.0 mg/kg, SD rats, individual rats, read-out: T1/2 of 151 (converted)): 54.6 min | MRT [3]: 0.86 h | AUC(0-t) [3]: 1170 ng·h/mL | AUC(0-inf) [3]: 1180 ng·h/mL | half-life (male, Sprague-Dawley, rat, in vivo, iv, 1 mg/kg, plasma, 151 IV 1.0 mg/kg, SD rats, mean, read-out: T1/2 of 151 (converted)): 53.4 min | concentration at 0.25 h (male, Sprague-Dawley, rat, in vivo, po, 10 mg/kg, 151 PO 10 mg/kg, SD rats, 0.25 h, individual rats): 2230 ng/mL | concentration at 0.25 h (male, Sprague-Dawley, rat, in vivo, po, 10 mg/kg, 151 PO 10 mg/kg, SD rats, 0.25 h, mean): 2330 ng/mL | concentration at 0.5 h (male, Sprague-Dawley, rat, in vivo, po, 10 mg/kg, 151 PO 10 mg/kg, SD rats, 0.50 h, individual rats): 2450 ng/mL | concentration at 0.5 h (male, Sprague-Dawley, rat, in vivo, po, 10 mg/kg, 151 PO 10 mg/kg, SD rats, 0.50 h, mean): 3240 ng/mL | concentration at 1 h (male, Sprague-Dawley, rat, in vivo, po, 10 mg/kg, 151 PO 10 mg/kg, SD rats, 1.0 h, individual rats): 2200 ng/mL | concentration at 1 h (male, Sprague-Dawley, rat, in vivo, po, 10 mg/kg, 151 PO 10 mg/kg, SD rats, 1.0 h, mean): 2440 ng/mL | concentration at 2 h (male, Sprague-Dawley, rat, in vivo, po, 10 mg/kg, 151 PO 10 mg/kg, SD rats, 2.0 h, individual rats): 1100 ng/mL | concentration at 2 h (male, Sprague-Dawley, rat, in vivo, po, 10 mg/kg, 151 PO 10 mg/kg, SD rats, 2.0 h, mean): 1310 ng/mL | concentration at 3 h (male, Sprague-Dawley, rat, in vivo, po, 10 mg/kg, 151 PO 10 mg/kg, SD rats, 3.0 h, individual rats): 521 ng/mL | concentration at 3 h (male, Sprague-Dawley, rat, in vivo, po, 10 mg/kg, 151 PO 10 mg/kg, SD rats, 3.0 h, mean): 658 ng/mL | concentration at 5 h (male, Sprague-Dawley, rat, in vivo, po, 10 mg/kg, 151 PO 10 mg/kg, SD rats, 5.0 h, individual rats): 125 ng/mL | concentration at 5 h (male, Sprague-Dawley, rat, in vivo, po, 10 mg/kg, 151 PO 10 mg/kg, SD rats, 5.0 h, mean): 139 ng/mL | concentration at 7 h (male, Sprague-Dawley, rat, in vivo, po, 10 mg/kg, 151 PO 10 mg/kg, SD rats, 7.0 h, mean): 43.8 ng/mL | concentration at 9 h (male, Sprague-Dawley, rat, in vivo, po, 10 mg/kg, 151 PO 10 mg/kg, SD rats, 9.0 h, individual rats): 52.1 ng/mL | concentration at 9 h (male, Sprague-Dawley, rat, in vivo, po, 10 mg/kg, 151 PO 10 mg/kg, SD rats, 9.0 h, mean): 52.1 ng/mL | half-life (male, Sprague-Dawley, rat, in vivo, po, 10 mg/kg, 151 oral 10 mg/kg, SD rats (n=3), read-out: mean half-life (converted)): 75.6 min | Cmax [4]: 2450 ng/mL | MRT [4]: 1.86 h | AUC(0-t) [4]: 5400 ng·h/mL | AUC(0-inf) [4]: 5500 ng·h/mL | half-life (male, Sprague-Dawley, rat, in vivo, po, 10 mg/kg, plasma, 151 PO 10 mg/kg, SD rats, individual rats, read-out: T1/2 of 151 (converted)): 79.8 min | Cmax [5]: 3240 ng/mL | MRT [5]: 1.81 h | AUC(0-t) [5]: 6340 ng·h/mL | AUC(0-inf) [5]: 6440 ng·h/mL | half-life (male, Sprague-Dawley, rat, in vivo, po, 10 mg/kg, plasma, 151 PO 10 mg/kg, SD rats, mean, read-out: T1/2 of 151 (converted)): 75.6 min | bioavailability (male, Sprague-Dawley, rat, in vivo, 151 oral 10 mg/kg, based on AUC0-∞, read-out: absolute bioavailability (F)): 54.6% | Tmax (male, Sprague-Dawley, rat, in vivo, plasma, 151 PO 10 mg/kg, SD rats, mean): 30 min | AUC0-t of 151 [6]: 1045 ng·h/mL | AUC0-∞ of 151 [6]: 1047 ng·h/mL | MRT of 151 [6]: 0.81 h | T1/2 of 151 [6]: 0.87 h | AUC0-t of 151 [7]: 6423 ng·h/mL and 7199 ng·h/mL | AUC0-∞ of 151 [7]: 6484 ng·h/mL and 7328 ng·h/mL | Cmax of 151 [7]: 3934 ng/mL and 3343 ng/mL | MRT of 151 [7]: 1.62 h and 1.95 h | T1/2 of 151 [7]: 1.10 h and 1.35 h
